Test results: article PMC7358525, “Characterization of PF-6142, a Novel, Non-Catecholamine Dopamine Receptor D1 Agonist, in Murine and Nonhuman Primate Models of Dopaminergic Activation” (Frontiers in Pharmacology, 2020)

How the values were obtained:
[1] = tested on: time spent awake, in SWS and REM sleep; assay: Rat polysomnography; format: in vivo; conditions: 5.6 mg/kg s.c., first 4 h
Excerpt: Model 4ET telemetry device components (Data Sciences International, St Paul, MN, USA) were bilaterally placed in subcutaneous pockets on the dorsal flank of adult male Sprague-Dawley rats (200–400 grams). Two pairs of leads were implanted superficially to burr holes drilled over the frontal cortex (stainless steel screws, Plastics One, Roanoke, VA at coordinates: A-P = +1.5 mm, M-L = 1.5 mm) and parietal cortex (coordinates: A-P = −3.7 mm, M-L = −2.2 mm), and the cerebellum bilaterally to be used as ground and reference for electroencephalographic (EEG) recordings. A stainless-steel wire (Plastics One, Roanoke, VA) was implanted into the neck muscle to monitor electromyogram (EMG). All recordings were performed inside the home cages of animals using RPC-2 telemetry receivers (Data Sciences International, St. Paul, MN) at a sampling rate of 500 Hz for data acquisition. Baseline data, while on vehicle, were obtained for 24 h prior to compound administration. PF-6142 (1.0 or 5.6 mg/kg, s.c.) was administered acutely following the baseline day.
Raw EEG traces were analyzed using custom scripts in MATLAB (The Mathworks, Natick, MA, version 7.8 (R2009a)) to evaluate spectral changes between treatment groups. Raw EEG data were read into the MATLAB software, segmented to match that of the polysomnography (PSG) data (see below) and fast Fourier transforms (FFTs) were performed. Only data collected on the parietal lead were the subject of statistical analyses. PSG analysis was applied to all EEG/EMG data and utilized an in-house algorithm developed in LabView (National Instruments, Austin TX) as previously described ([Harvey et al., 2013]).
Relative power data in each band aggregated over 2 h-long time bins, while on drug, were normalized to baseline levels in corresponding time bins relative to dosing. For statistical analysis the R software was used. The effects of two within factors, dose and time, on cumulative time spent in three stages, awake, REM, and NREM sleep were assessed using generalized linear mixed model. […]

[2] = tested on: conditioned avoidance responding; assay: Rat conditioned avoidance response (CAR); format: in vivo
Experimental: The CAR assay was performed under similar conditions previously described ([Marquis et al., 2011]) at WuXiAppTec Inc. (Delin Rd. #90, Waigaoquiao Free Trade Zone, Shanghai 200131, China). For this study, adult male Fisher-344 rats were trained and tested in a two-way active avoidance apparatus with MED-PC software (MED Associates, St. Albans, VT, USA).
Briefly, subjects were handled and acclimated to the shuttle boxes for 2 d prior to training sessions. During training sessions, subjects were trained to avoid an electric footshock by moving to the adjacent, non-stimulus side of the shuttle box upon presentation of tone + light stimuli which preceded the presentation of the footshock (0.6 mA, 10 s duration) by 10 s. For this assay an avoidance was defined as moving to the adjacent compartment during the tone+light presentation that preceded the shock, an escape was defined as moving to the adjacent compartment upon presentation of the shock, and an escape failure was defined as a lack of relocation to the adjacent compartment throughout the presentation of the shock. Subjects received 30 trials of training per day for 5 d. Subjects with ≥ 80% avoidance responses on two consecutive days with no escape failures, were considered qualified for testing, and were randomized across treatment groups (n=8–9 per treatment group). […] Avoidance responding was calculated as % of the number of total trials in which an avoidance occurred. Data were calculated for each animal and compared across treatment groups using one-way ANOVA with Dunnett’s post-test versus the vehicle + vehicle treated group.

human D1 receptor = conditions: stated in discussion, no data or reference printed; cited from earlier work

Cc1cc(Oc2nccc3occc23)ccc1-c1c(C)ncc2nccn12 [PF-6142]
decrease of time spent in slow-wave sleep relative to vehicle [1]: 88.1% | difference in fraction of REM sleep, vehicle vs high dose group [1]: 88.2% | increase of time spent awake [1]: 246.9% | % avoidance responses ([2]; PF-6142 1.78 mg/kg s.c. + risperidone 0.1 mg/kg s.c.): 76.25% | % avoidance responses ([2]; PF-6142 1.78 mg/kg s.c. + risperidone 0.56 mg/kg s.c.): 8.125% | % avoidance responding ([2]; PF-6142 1.78 mg/kg s.c. alone, combination study (Figure 4D)): 94.38% | mean % avoidance responses ([2]; PF-6142 alone 0.32 mg/kg s.c.): 95.93% | mean % avoidance responses ([2]; PF-6142 alone 1.78 mg/kg s.c., dose-range study): 98.47% | mean % avoidance responses ([2]; PF-6142 alone 3.2 mg/kg s.c.): 95.57% | mean % avoidance responses ([2]; PF-6142 alone 5.6 mg/kg s.c.): 95.75% | affinity (human D1 receptor): moderate affinity
